Data on 23 compounds can be found in patent publication US11046681B2, “Substituted piperidines for the treatment of cancer” (LES LABORATOIRES SERVIER, priority 2016, dated 2021).

His-His-USP7 (aa208-560, [C315A]), sequence (Q93009 208-560 C315A): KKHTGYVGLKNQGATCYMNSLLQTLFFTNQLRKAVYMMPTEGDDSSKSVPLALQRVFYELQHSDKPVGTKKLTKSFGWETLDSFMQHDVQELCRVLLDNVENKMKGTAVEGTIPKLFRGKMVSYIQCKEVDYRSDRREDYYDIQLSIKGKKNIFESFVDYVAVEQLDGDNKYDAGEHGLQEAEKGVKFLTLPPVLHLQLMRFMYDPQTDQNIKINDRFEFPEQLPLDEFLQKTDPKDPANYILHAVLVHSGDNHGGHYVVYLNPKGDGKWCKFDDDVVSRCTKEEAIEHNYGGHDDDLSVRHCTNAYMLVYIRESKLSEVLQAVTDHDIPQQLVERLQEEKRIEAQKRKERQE

For this assay, the target named is His-His-USP7 (aa208-560, [C315A]) (Homo sapiens (Human), UniProt Q93009, C315A). Kind of assay: Evaluation of the inhibition of USP7 by Fluorescence Intensity (FLINT) readings. Type of assay: biochemical. Conditions: 0.25 nM USP7, 60 minutes at 30° C. preincubation, 500 nM Ubiquitin-Rhodamine-110 substrate, 50% reduction in kinetic rate. As for the experimental part:
USP7 activity was measured using Rhodamine-110 c-terminal labelled Ubiquitin as a substrate (Viva Biosciences). Incubation with USP7 results in the release of Rhodamine-110 leading to an increase in fluorescence which can be used in the continuous measurement of USP7 activity.
The USP7 reactions were performed in a 50 μL volume, in 384 well black solid low binding plates (Corning #3575). The reaction buffer consisted of 100 mM Bicine pH 8.0, 0.01% TritonX100, 1 mM TCEP, and 10% DMSO.
0.25 nM His-His-USP7 (aa208-560, [C315A]) was incubated with compound (final concentration 10% DMSO) for 60 minutes at 30° C. The reaction was then initiated by the addition of 500 nM Ubiquitin-Rhodamine-110 substrate and the plate read every 3 minutes for 21 minutes to measure the release of Rhodamine-110. Fluorescence Intensity (FLINT) readings were measured using a […] Neo plate reader (Ex.485 nm, Em.535 nm).
The inhibition of increasing doses of compound was expressed as a percentage reduction in kinetic rate compared to the kinetic rates established between ‘DMSO only’ and ‘total inhibition’ controls (no USP7). The inhibitory concentrations that gave a 50% reduction in kinetic rate (IC50) were determined, from 11-point dose response curves, in XL-Fit using a 4-Parameter Logistic Model (Sigmoidal Dose-Response Model).
`CC(C)(C)C(=O)N1CC[C@@H](C(=O)N2CCC(O)(Cn3cnc4c(ccn4-c4ccccc4)c3=O)CC2)[C@H](c2ccccc2)C1` [EXAMPLE 184, 3-[[1-[(3R,4R)-1-(2,2-dimethylpropanoyl)-3-phenyl-piperidine-4-carbonyl]-4-hydroxy-4-piperidyl]methyl]-7-phenyl-pyrrolo[2,3-d]pyrimidin-4-one] yielded a 50% inhibitory concentration (IC50) of 83 nM.
For `COc1ccc(-n2ccc3c(=O)n(CC4(O)CCN(C(=O)[C@@H]5CCN(C(C)=O)C[C@H]5c5ccccc5)CC4)cnc32)cc1` [EXAMPLE 178, 3-[[1-[(3R,4R)-1-acetyl-3-phenyl-piperidine-4-carbonyl]-4-hydroxy-4-piperidyl]methyl]-7-(4-methoxyphenyl)pyrrolo[2,3-d]pyrimidin-4-one] the value was 96.1 nM; for `CC(=O)N1CC[C@@H](C(=O)N2CCC(O)(Cn3cnc4c(ccn4-c4ccc(F)cc4)c3=O)CC2)[C@H](c2ccccc2)C1` [EXAMPLE 166, 3-[[1-[(3R,4R)-1-acetyl-3-phenyl-piperidine-4-carbonyl]-4-hydroxy-4-piperidyl]methyl]-7-(4-fluorophenyl)pyrrolo[2,3-d]pyrimidin-4-one], 102 nM.
The result for `CC(C)(C)OC(=O)N1CC[C@@H](C(=O)N2CCC(O)(Cn3cnc4c(cnn4-c4ccc5c(c4)OCCO5)c3=O)CC2)[C@H](c2ccccc2)C1` [EXAMPLE 64, tert-butyl (3R,4R)-4-[4-[[1-(2,3-dihydro-1,4-benzodioxin-6-yl)-4-oxo-pyrazolo[3,4-d]pyrimidin-5-yl]methyl]-4-hydroxy-piperidine-1-carbonyl]-3-phenyl-piperidine-1-carboxylate] reads 68.7 nM; that for `CC(=O)N1CC[C@@H](C(=O)N2CCC(O)(Cn3cnc4c(ccn4-c4ccccc4)c3=O)CC2)[C@H](c2ccccc2)C1` [EXAMPLE 147, 3-[[1-[(3R,4R)-1-acetyl-3-phenyl-piperidine-4-carbonyl]-4-hydroxy-4-piperidyl]methyl]-7-phenyl-pyrrolo[2,3-d]pyrimidin-4-one], 406 nM.
The result for `CN1CC[C@@H](C(=O)N2CCC(O)(Cn3cnc4c(ccn4-c4cccc(Cl)c4)c3=O)CC2)[C@H](c2ccccc2)C1` [EXAMPLE 152, 7-(3-chlorophenyl)-3-[[4-hydroxy-1-[(3R,4R)-1-methyl-3-phenyl-piperidine-4-carbonyl]-4-piperidyl]methyl]pyrrolo[2,3-d]pyrimidin-4-one] reads 64.8 nM.
Regarding `CC(C)CN1CC[C@@H](C(=O)N2CCC(O)(Cn3cnc4c(ccn4-c4ccccc4)c3=O)CC2)[C@H](c2ccccc2)C1` [EXAMPLE 163, 3-[[4-hydroxy-1-[(3R,4R)-1-isobutyl-3-phenyl-piperidine-4-carbonyl]-4-piperidyl]methyl]-7-phenyl-pyrrolo[2,3-d]pyrimidin-4-one], the IC50 worked out at 108 nM.
For `COc1cccc(-n2ccc3c(=O)n(CC4(O)CCN(C(=O)[C@@H]5CCNC[C@H]5c5ccccc5)CC4)cnc32)c1` [EXAMPLE 136, 3-[[4-hydroxy-1-[(3R,4R)-3-phenylpiperidine-4-carbonyl]-4-piperidyl]methyl]-7-(3-methoxyphenyl)pyrrolo[2,3-d]pyrimidin-4-one] the value was 48.6 nM.
`O=C([C@@H]1CCNC[C@H]1c1ccccc1)N1CCC(O)(Cn2cnc3c(ccn3-c3ccccn3)c2=O)CC1` [EXAMPLE 104, 3-[[4-hydroxy-1-[(3R,4R)-3-phenylpiperidine-4-carbonyl]-4-piperidyl]methyl]-7-(2-pyridyl)pyrrolo[2,3-d]pyrimidin-4-one] gave a 50% inhibitory concentration (IC50) of 394 nM.
Regarding `CC(C)(C)OC(=O)N1CC[C@@H](C(=O)N2CCC(O)(Cn3cnc4c(ccn4-c4ccccn4)c3=O)CC2)[C@H](c2ccccc2)C1` [EXAMPLE 15, tert-butyl (3R,4R)-4-[4-hydroxy-4-[[4-oxo-7-(2-pyridyl)pyrrolo[2,3-d]pyrimidin-3-yl]methyl]piperidine-1-carbonyl]-3-phenyl-piperidine-1-carboxylate], the midpoint of inhibition, the IC50, lay at 274 nM.
`COc1cc(-n2ccc3c(=O)n(CC4(O)CCN(C(=O)[C@@H]5CCN(C(=O)OC(C)(C)C)C[C@H]5c5ccccc5)CC4)cnc32)ccc1F` [EXAMPLE 57, tert-butyl (3R,4R)-4-[4-[[7-(4-fluoro-3-methoxy-phenyl)-4-oxo-pyrrolo[2,3-d]pyrimidin-3-yl]methyl]-4-hydroxy-piperidine-1-carbonyl]-3-phenyl-piperidine-1-carboxylate] had a 50% inhibitory concentration (IC50) of 70.2 nM.
The result for `CC(=O)N1CC[C@@H](C(=O)N2CCC(O)(Cn3cnc4c(ccn4-c4ccc(Cl)cc4)c3=O)CC2)[C@H](c2ccccc2)C1` [EXAMPLE 181, 3-[[1-[(3R,4R)-1-acetyl-3-phenyl-piperidine-4-carbonyl]-4-hydroxy-4-piperidyl]methyl]-7-(4-chlorophenyl)pyrrolo[2,3-d]pyrimidin-4-one] reads 74.2 nM; that for `CC(C)(C)OC(=O)N1CC[C@@H](C(=O)N2CCC(O)(Cn3cnc4sccc4c3=O)CC2)[C@H](c2ccccc2)C1` [EXAMPLE 2, tert-butyl (3R,4R)-4-[4-hydroxy-4-[(4-oxothieno[2,3-d]pyrimidin-3-yl)methyl]piperidine-1-carbonyl]-3-phenyl-piperidine-1-carboxylate], 128 nM.
The result for `COc1cc(-n2ccc3c(=O)n(CC4(O)CCN(C(=O)[C@@H]5CCNC[C@H]5c5ccccc5)CC4)cnc32)ccc1F` [EXAMPLE 157, 7-(4-fluoro-3-methoxy-phenyl)-3-[[4-hydroxy-1-[(3R,4R)-3-phenylpiperidine-4-carbonyl]-4-piperidyl]methyl]pyrrolo[2,3-d]pyrimidin-4-one] reads 39.3 nM.
In the case of `O=C([C@@H]1CCNC[C@H]1c1ccccc1)N1CCC(O)(Cn2cnc3c(ccn3-c3ccc(F)cc3)c2=O)CC1` [EXAMPLE 130, 7-(4-fluorophenyl)-3-[[4-hydroxy-1-[(3R,4R)-3-phenylpiperidine-4-carbonyl]-4-piperidyl]methyl]pyrrolo[2,3-d]pyrimidin-4-one], 37.7 nM corresponded to half-maximal inhibition (IC50).
The result for `COc1cccc(-n2ccc3c(=O)n(CC4(O)CCN(C(=O)[C@@H]5CCN(C(C)=O)C[C@H]5c5ccccc5)CC4)cnc32)c1` [EXAMPLE 179, 3-[[1-[(3R,4R)-1-acetyl-3-phenyl-piperidine-4-carbonyl]-4-hydroxy-4-piperidyl]methyl]-7-(3-methoxyphenyl)pyrrolo[2,3-d]pyrimidin-4-one] reads 88.4 nM; that for `CN1CC[C@@H](C(=O)N2CCC(O)(Cn3cnc4c(ccn4-c4ccccc4)c3=O)CC2)[C@H](c2ccccc2)C1` [EXAMPLE 121, 3-[[4-hydroxy-1-[(3R,4R)-1-methyl-3-phenyl-piperidine-4-carbonyl]-4-piperidyl]methyl]-7-phenyl-pyrrolo[2,3-d]pyrimidin-4-one], 140 nM; that for `O=C([C@@H]1CCNC[C@H]1c1ccccc1)N1CCC(O)(Cn2cnc3c(cnn3-c3ccccc3)c2=O)CC1` [EXAMPLE 103, 5-[[4-hydroxy-1-[(3R,4R)-3-phenylpiperidine-4-carbonyl]-4-piperidyl]methyl]-1-phenyl-pyrazolo[3,4-d]pyrimidin-4-one], 52.9 nM.
The compound `COc1ccc(-n2ncc3c(=O)n(CC4(O)CCN(C(=O)[C@@H]5CCN(C(=O)OC(C)(C)C)C[C@H]5c5ccccc5)CC4)cnc32)cc1` [EXAMPLE 44, tert-butyl (3R,4R)-4-[4-hydroxy-4-[[1-(4-methoxyphenyl)-4-oxo-pyrazolo[3,4-d]pyrimidin-5-yl]methyl]piperidine-1-carbonyl]-3-phenyl-piperidine-1-carboxylate] registered an IC50 of 61.5 nM.
`CC(C)C(=O)N1CC[C@@H](C(=O)N2CCC(O)(Cn3cnc4c(ccn4-c4ccccc4)c3=O)CC2)[C@H](c2ccccc2)C1` [EXAMPLE 177, 3-[[4-hydroxy-1-[(3R,4R)-1-(2-methylpropanoyl)-3-phenyl-piperidine-4-carbonyl]-4-piperidyl]methyl]-7-phenyl-pyrrolo[2,3-d]pyrimidin-4-one] returned an IC50 of 103 nM.
The compound `CN1CC[C@@H](C(=O)N2CCC(O)(Cn3cnc4c(ccn4-c4ccc(F)cc4)c3=O)CC2)[C@H](c2ccccc2)C1` [EXAMPLE 141, 7-(4-fluorophenyl)-3-[[4-hydroxy-1-[(3R,4R)-1-methyl-3-phenyl-piperidine-4-carbonyl]-4-piperidyl]methyl]pyrrolo[2,3-d]pyrimidin-4-one] showed an IC50 of 74.8 nM.
The result for `O=C([C@@H]1CCN(CC(F)(F)F)C[C@H]1c1ccccc1)N1CCC(O)(Cn2cnc3[nH]ccc3c2=O)CC1` [EXAMPLE 117, 3-[[4-hydroxy-1-[(3R,4R)-3-phenyl-1-(2,2,2-trifluoroethyl)piperidine-4-carbonyl]-4-piperidyl]methyl]-7H-pyrrolo[2,3-d]pyrimidin-4-one] reads 1200 nM; that for `O=C([C@@H]1CCNC[C@H]1c1ccccc1)N1CCC(O)(Cn2cnc3c(ccn3-c3cccc(Cl)c3)c2=O)CC1` [EXAMPLE 142, 7-(3-chlorophenyl)-3-[[4-hydroxy-1-[(3R,4R)-3-phenylpiperidine-4-carbonyl]-4-piperidyl]methyl]pyrrolo[2,3-d]pyrimidin-4-one], 56.7 nM.

Usually IC50 stands for the concentration needed to halve the response being measured.
